Literature values, collected in PMC8704606, “The Artemiside-Artemisox-Artemisone-M1 Tetrad: Efficacies against Blood Stage P. falciparum Parasites, DMPK Properties, and the Case for Artemiside” (Pharmaceutics, 2021).

What was measured:
[1] = test system: late-stage (LG) Pf NF54 gametocytes; set-up: method as in PMID 29866868; conditions: late-stage gametocytes >90% stages IV-V; 48 h incubation; ± SEM; cited from earlier work
[2] = test system: asexual blood stages of Pf NF54 (drug sensitive); set-up: method as in PMID 29866868, PMID 31998692; conditions: asexual blood stage Pf NF54, CQ sensitive; SYBR Green I; ± SEM; cited from earlier work
[3] = test system: TM93-C1088 (atovaquone and CQ resistant); set-up: method as in ref S2; conditions: [3H]-hypoxanthine assay; ref S2; read-out: Antimalarial activities IC50 TM93-C1088; cited from earlier work
[4] = test system: fetal rat brain stem cells; conditions: cited from earlier work
[5] = test system: early-stage (EG) Pf NF54 gametocytes; set-up: method as in PMID 29866868; conditions: early-stage gametocytes >95% stages II-III; 48 h incubation; ± SEM; cited from earlier work
[6] = test system: TM91-C235 (CQ and MFQ resistant); set-up: method as in ref S2; conditions: [3H]-hypoxanthine assay; ref S2; read-out: Antimalarial activities IC50 TM91-C235; cited from earlier work
[7] = single dose 10 mg/kg, healthy Aotus monkeys; cited from earlier work
[8] = test system: CQ-resistant P. yoelii NS strain; conditions: Peters four-day test, mice, subcutaneous; ref S4 (24); cited from earlier work
[9] = test system: CQ-sensitive P. berghei N strain; conditions: Peters four-day test, mice, ref S4 (24), cited from earlier work
[10] = test system: asexual blood stages of Pf K1 (drug resistant); set-up: method as in PMID 29866868, PMID 31998692; conditions: asexual blood stage Pf K1, multidrug resistant; SYBR Green I; ± SEM; cited from earlier work
W2 (CQ resistant) = test system: W2 (CQ resistant); set-up: method as in ref S2; conditions: [3H]-hypoxanthine assay; ref S2; read-out: Antimalarial activities IC50 W2; cited from earlier work
Toxoplasma gondii (Tg) = test system: Toxoplasma gondii (Tg); set-up: method as in PMID 19635951; conditions: read-out: EC50 against Tg in vitro; cited from earlier work
7G8 (CQ resistant) = test system: 7G8 (CQ resistant); set-up: method as in ref S2; conditions: [3H]-hypoxanthine assay; ref S2; read-out: Antimalarial activities IC50 7G8; cited from earlier work
TM-C2B = test system: TM-C2B; set-up: method as in ref S2; conditions: [3H]-hypoxanthine assay; ref S2; read-out: Antimalarial activities IC50 TM-C2B; cited from earlier work
[11] = test system: asexual blood stages of Pf W2 (drug resistant); set-up: method as in PMID 29866868, PMID 31998692; conditions: asexual blood stage Pf W2, multidrug resistant; SYBR Green I; ± SEM; cited from earlier work

For `C[C@H]1[C@H](OC(=O)CCC(=O)O)O[C@@H]2O[C@@]3(C)CC[C@H]4[C@H](C)CC[C@@H]1[C@@]24OO3` [Artesunate 4, Artesunate], the IC50 [1] is listed as 259 ± 80 nM, the IC50 [2] is listed as 3 ± 0.29 nM and the IC50 [3] is listed as 1.4 ± 0.1 nM. For the same compound, the “Viability NOEC” value [4] was 0.1 µg/mL, the “Neurofilaments IC50” value ([4]; effect on the cytoskeleton on day 7, ref S4 (24)) was 5.0 µg/mL and the IC50 [5] was 62.8 ± 3 nM. The IC50 [6] was 2.9 ± 1.4 nM, the “ex vivo antimalarial activity observable up to (post dose)” value [7] was “up to 1 h” and the “P. yoelii ED90 sc” value [8] was 22.0 mg/kg. For the same compound, the “P. berghei ED90 po” value ([9]; oral daily day 0-3) was 7.1 mg/kg, the “P. berghei ED90 sc” value ([9]; subcutaneous daily day 0-3) was 7.2 mg/kg and the IC50 [10] was 4 ± 1 nM. The IC50 (W2 (CQ resistant)) was 3 ± 1.6 nM, the EC50 (Toxoplasma gondii (Tg)) was 213 nM and the IC50 (7G8 (CQ resistant)) was 1.5 ± 0.2 nM. For the same compound, the IC50 (TM-C2B) was 2.5 ± 0.5 nM and the IC50 [11] was 2.4 ± 0.4 nM.
